Among the data in ChEMBL document CHEMBL1133011, “DNA binding, solubility, and partitioning characteristics of extended lexitropsins” (J Med Chem, 2000) are logP, logD and pKa values, retold here.

Data set [1] can be described thus: Partition coefficient of the compound (logP). Particulars: octanol/water.
The nature of data set [2]: Distribution coefficient of the compound at pH 7.4 (logD). Particulars: octanol/water.
Data set [3] can be described thus: The ionization constant (pKa) for the compound.

As to `CN(C)CCCNC(=O)c1cc(NC(=O)c2cc(NC(=O)c3cc(NC(=O)c4cc(NC(=O)c5cc(NC(=O)c6cc(NC(=O)CCCN(C)C)cn6C)cn5C)cn4C)cn3C)cn2C)cn1C`, the logP – broadly, a log measure of how a compound divides between an organic and an aqueous phase – in data set [1] was determined as 4.68. In data set [2], the logD (usually the decadic logarithm of the distribution of all forms, ionised or not, between an organic phase and buffer at a given pH) came out at 0.47. Besides, in data set [3], the pKa (commonly the negative logarithm of the acid dissociation constant) was found to be 9.5.

Turning to `CN(C)CCCNC(=O)c1cc(NC(=O)c2cc(NC(=O)c3cc(NC=O)cn3C)cn2C)cn1C`, the logP in data set [1] turned out to be 2.17. In data set [2], this molecule came in with a logD of 0.07. In addition, the pKa in data set [3] is 9.5.

`CN(C)CCCNC(=O)c1cc(NC(=O)c2cc(NC(=O)CNC(=O)c3cccc(C(=O)NCC(=O)Nc4cc(C(=O)Nc5cc(C(=O)NCCCN(C)C)n(C)c5)n(C)c4)c3)cn2C)cn1C` showed a logP in data set [1] of 1.47. The logD in data set [2] is -2.74. The molecule also came in with a pKa in data set [3] of 9.5.

Molecule `CN(C)CCCNC(=O)c1cc(NC(=O)c2cc(NC(=O)c3cc(NC(=O)c4cc(NC(=O)c5cc(NC(=O)CCCN(C)C)cn5C)cn4C)cn3C)cn2C)cn1C` returned a logP in data set [1] of 3.89. Also, the logD in data set [2] was -0.32. Also, in data set [3], the pKa came to 9.5.

On to `CN(C)CCCNC(=O)c1cc(NC(=O)c2cc(NC(=O)/C=C/C(=O)Nc3cc(C(=O)Nc4cc(C(=O)NCCCN(C)C)n(C)c4)n(C)c3)cn2C)cn1C`, for which the logP in data set [1] is 3.18. In addition, the logD in data set [2] was -1.03. Moreover, the pKa in data set [3] amounted to 9.5.

In turn, `Cn1cc(NC(=O)c2cc(NC(=O)c3cc(NC=O)cn3C)cn2C)cc1C(=O)NCCC(=N)N` [STALLIMYCIN] had a logP in data set [1] of -0.87. Further, the pH-dependent lipophilicity (logD) in data set [2] was -5.87. The same molecule gave a pKa in data set [3] of 12.4.
